Laboratory results reported in patent US20110082130A1 (LIGAND PHARMACEUTICALS, INC., priority 2006, published 2011).

target: T1, chimeric human H3 receptor (Homo sapiens, UniProt Q9Y5N1); assay: Chimeric human H3 receptor GTP binding assay (agonist-stimulated GTP-gamma35S binding, Example 7); assay type: biochemical; settings: Table II "Ki", symbol *; assay of Example 7
T1 construct: made in house; host or cells: Sf9 insect cells (baculovirus); P2 membrane preparation
Method in brief: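 Sf9 membranes co-expressing chimeric human H3 receptor and heterotrimeric G-protein, 35 μg/tube, in pH 7.4 Tris buffer with 10 μM GDP. Test compounds (10^−10–10^−6 M) competed against 1 μM histamine, […] GTP-gamma35S, 60 min at room temperature. Filter-bound radioactivity counted; IC50 converted to Ki by Cheng-Prusoff. Agonism/inverse agonism tested without histamine (EC50).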

T1 sequence (Q9Y5N1 with tags, fused parts or gaps): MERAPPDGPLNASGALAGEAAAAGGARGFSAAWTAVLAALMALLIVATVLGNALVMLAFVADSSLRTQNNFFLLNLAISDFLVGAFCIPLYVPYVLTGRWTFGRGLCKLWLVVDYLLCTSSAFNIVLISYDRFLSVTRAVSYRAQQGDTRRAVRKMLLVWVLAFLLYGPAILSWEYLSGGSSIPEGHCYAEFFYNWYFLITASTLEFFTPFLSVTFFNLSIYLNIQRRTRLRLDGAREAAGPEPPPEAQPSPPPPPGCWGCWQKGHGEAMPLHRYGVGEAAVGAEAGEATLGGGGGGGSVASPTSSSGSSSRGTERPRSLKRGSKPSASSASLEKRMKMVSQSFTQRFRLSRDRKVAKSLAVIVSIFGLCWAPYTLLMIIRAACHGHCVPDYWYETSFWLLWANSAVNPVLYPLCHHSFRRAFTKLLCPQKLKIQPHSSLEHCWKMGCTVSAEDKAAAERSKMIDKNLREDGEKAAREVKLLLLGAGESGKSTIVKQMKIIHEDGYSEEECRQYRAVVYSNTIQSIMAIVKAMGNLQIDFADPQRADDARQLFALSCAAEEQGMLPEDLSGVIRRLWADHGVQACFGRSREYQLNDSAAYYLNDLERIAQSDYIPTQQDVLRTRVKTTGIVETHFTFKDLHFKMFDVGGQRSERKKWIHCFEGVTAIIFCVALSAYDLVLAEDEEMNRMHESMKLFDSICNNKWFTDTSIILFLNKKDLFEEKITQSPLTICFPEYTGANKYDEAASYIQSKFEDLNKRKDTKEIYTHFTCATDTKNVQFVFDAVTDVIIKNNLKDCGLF

Ki, < 1 µM:
CN(C)Cc1ccccc1-c1ccc2c(c1)CCN(CC(=O)N1CCN(C3CCC3)CC1)C2 [Compound 640, 1-(2-{2-[2-(4-cyclobutylpiperazin-1-yl)-2-oxoethyl]-1,2,3,4-tetrahydroisoquinolin-6-yl}phenyl)-N,N-dimethylmethanamine]
CN(C)Cc1cccc(-c2ccc3c(c2)CCN(CC(=O)N2CCN(C4CCC4)CC2)C3)c1 [Compound 641, 1-(3-{2-[2-(4-cyclobutylpiperazin-1-yl)-2-oxoethyl]-1,2,3,4-tetrahydroisoquinolin-6-yl}phenyl)-N,N-dimethylmethanamine]
CN(C)Cc1ccc(-c2ccc3c(c2)CCN(CC(=O)N2CCN(C4CCC4)CC2)C3)cc1 [Compound 642, 1-(4-{2-[2-(4-cyclobutylpiperazin-1-yl)-2-oxoethyl]-1,2,3,4-tetrahydroisoquinolin-6-yl}phenyl)-N,N-dimethylmethanamine]
CN(C)CCc1ccccc1-c1ccc2c(c1)CCN(CC(=O)N1CCN(C3CCC3)CC1)C2 [Compound 643, 2-(2-{2-[2-(4-cyclobutylpiperazin-1-yl)-2-oxoethyl]-1,2,3,4-tetrahydroisoquinolin-6-yl}phenyl)-N,N-dimethylethanamine]
CN(C)CCc1cccc(-c2ccc3c(c2)CCN(CC(=O)N2CCN(C4CCC4)CC2)C3)c1 [Compound 644, 2-(3-{2-[2-(4-cyclobutylpiperazin-1-yl)-2-oxoethyl]-1,2,3,4-tetrahydroisoquinolin-6-yl}phenyl)-N,N-dimethylethanamine]
CN(C)CCc1ccc(-c2ccc3c(c2)CCN(CC(=O)N2CCN(C4CCC4)CC2)C3)cc1 [Compound 645, 2-(4-{2-[2-(4-cyclobutylpiperazin-1-yl)-2-oxoethyl]-1,2,3,4-tetrahydroisoquinolin-6-yl}phenyl)-N,N-dimethylethanamine]
COCc1ccc(-c2ccc3c(c2)CCN(CC(=O)N2CCN(C4CCC4)CC2)C3)nc1 [Compound 646, 2-[2-(4-cyclobutylpiperazin-1-yl)-2-oxoethyl]-6-[5-(methoxymethyl)pyridin-2-yl]-1,2,3,4-tetrahydroisoquinoline]
CC(C)c1ccc(-c2ccc3c(c2)CCN(CC(=O)N2CCN(C4CCC4)CC2)C3)nc1 [Compound 647, 2-[2-(4-cyclobutylpiperazin-1-yl)-2-oxoethyl]-6-(5-isopropylpyridin-2-yl)-1,2,3,4-tetrahydroisoquinoline]
O=C(CN1CCc2cc(-c3ccc(C(F)(F)F)nc3)ccc2C1)N1CCN(C2CCC2)CC1 [Compound 648, 2-[2-(4-cyclobutylpiperazin-1-yl)-2-oxoethyl]-6-[6-(trifluoromethyl)pyridin-3-yl]-1,2,3,4-tetrahydroisoquinoline]
CC(C)c1ccc(-c2ccc3c(c2)CCN(CC(=O)N2CCN(C4CCC4)CC2)C3)cn1 [Compound 649, 2-[2-(4-cyclobutylpiperazin-1-yl)-2-oxoethyl]-6-(6-isopropylpyridin-3-yl)-1,2,3,4-tetrahydroisoquinoline]
O=C(CN1CCc2nc(NCC3CC3)ccc2C1)N1CCN(C2CCC2)CC1 [Compound 650, 6-[2-(4-cyclobutylpiperazin-1-yl)-2-oxoethyl]-N-(cyclopropylmethyl)-5,6,7,8-tetrahydro-1,6-naphthyridin-2-amine]
CC(C)CNc1ccc2c(n1)CCN(CC(=O)N1CCN(C3CCC3)CC1)C2 [Compound 651, 6-[2-(4-cyclobutylpiperazin-1-yl)-2-oxoethyl]-N-isobutyl-5,6,7,8-tetrahydro-1,6-naphthyridin-2-amine]
CC(C)CCNc1ccc2c(n1)CCN(CC(=O)N1CCN(C3CCC3)CC1)C2 [Compound 652, 6-[2-(4-cyclobutylpiperazin-1-yl)-2-oxoethyl]-N-(3-methylbutyl)-5,6,7,8-tetrahydro-1,6-naphthyridin-2-amine]
